Data on 15 compounds can be found in ChEMBL document CHEMBL3632488, “Discovery of potent and selective cytotoxic activity of new quinazoline-ureas against TMZ-resistant glioblastoma multiforme (GBM)” (Eur J Med Chem, 2015).

A value given as a limit tells only on which side of the number the result lay.

The nature of assay [1]: Antiproliferative activity against human GBM1 cells assessed as reduction in cell viability incubated for 72 hrs by WST-1 method. Type of assay: functional, cell-based. The following applies: GBM1, 72 h. (Tetrazolium assays rely on reduction of a dye to a coloured formazan, in cell work by metabolically active cells.)
The nature of assay [2]: Selectivity index, ratio of IC50 for normal human astrocytes to IC50 for human GBM1 cells.
A short description of assay [3]: Antiproliferative activity against human GBM2 cells assessed as reduction in cell viability incubated for 72 hrs by WST-1 method. It is filed as functional, cell-based. Conditions: GBM2, 72 h.
Assay [4] in a line: Antiproliferative activity against human GBM3 cells assessed as reduction in cell viability at 10 uM incubated for 72 hrs by WST-1 method. Type of assay: functional. The following applies: GBM3, 72 h.
Assay [5] in a line: Antiproliferative activity against human GBM3 cells assessed as reduction in cell viability incubated for 72 hrs by WST-1 method. The following applies: GBM3, 72 h. Type of assay: functional, cell-based.
Assay [6] is described as follows: Selectivity index, ratio of IC50 for normal human astrocytes to IC50 for human GBM2 cells.
Assay [7] is described as follows: Cytotoxicity against normal human astrocytes assessed as cell viability incubated for 72 hrs by WST-1 method. Type of assay: cell-based. Conditions: Astrocyte.
The nature of assay [8]: Selectivity index, ratio of IC50 for normal human astrocytes to IC50 for human GBM3 cells.
Assay [9] is described as follows: Antiproliferative activity against human GBM1 cells assessed as reduction in cell viability at 10 uM incubated for 72 hrs by WST-1 method. It is filed as functional. Conditions: GBM1, 72 h.
The nature of assay [10]: Antiproliferative activity against human GBM2 cells assessed as reduction in cell viability at 10 uM incubated for 72 hrs by WST-1 method. It is filed as functional. Conditions: GBM2, 72 h.

The term IC50 denotes the point on the concentration scale where inhibition reaches its midpoint. A word on the inhibition: it is the change of the read-out against control, counted positive when it falls. As for `O=C(Nc1ccc(C(F)(F)F)cc1)Nc1cc2ncncc2cc1OCc1cccc(Cl)c1`, the IC50 in assay [1] was determined as 3.4 µM; in assay [3] it was 4.7 µM; in assay [5], 5.1 µM; in assay [7] it was 8.8 µM. Also, the “Ratio IC50” value in [2], in assay [6] and in assay [8] was 2 in each case. For the same compound, the inhibition at 10 µM in assay [4] is 90.1%; in assay [9], 75.7%; in assay [10] it was 94.6%.
For the compound `O=C(Nc1ccccc1F)Nc1cc2ncncc2cc1OCc1ccccc1F`, the IC50 was 4.2 µM in assay [1], 3.6 µM in assay [3], 3.8 µM in [5] and 10 µM in [7]. Moreover, the “Ratio IC50” value in assay [2], in [6] and in assay [8] was 2.6 in each case. For the same compound, the inhibition at 10 µM is 94.6% in [4], 80.7% in assay [9] and 92.4% in [10].
Turning to `O=C(Nc1ccc(Cl)c(Cl)c1)Nc1cc2ncncc2cc1OCc1ccccc1F`, the IC50 is 4.1 µM in assay [1], 6 µM in assay [3], over 10 µM in [5] and 3.9 µM in [7]. Further, the inhibition at 10 µM in assay [4] stood at 50.2%; in assay [9] it was 84.4%; in assay [10], 87.6%.
Turning to `CC[C@@]1(O)C(=O)OCc2c1cc1n(c2=O)Cc2cc3c(CN(C)C)c(O)ccc3nc2-1` [TOPOTECAN], the IC50 in assay [1] was determined as 0.46 µM; in assay [3], 0.13 µM; in assay [5] it was 0.38 µM; in assay [7], 0.16 µM. For the same compound, the “Ratio IC50” value in assay [2], in assay [6] and in assay [8] was 0.5 throughout. In addition, the inhibition at 10 µM was 88.7% in assay [4], 88.7% in assay [9] and 97.8% in assay [10].
Turning to `O=C(Nc1cccc(F)c1)Nc1cc2ncncc2cc1OCc1cccc(Cl)c1`, the IC50 is 3.7 µM in [1], 7.8 µM in [3], 8.3 µM in [5] and over 10 µM in assay [7]. Also, the “Ratio IC50” value in [2], in assay [6] and in [8] was over 1.5 each time. Also, the results for the inhibition at 10 µM in assay [4], in assay [9] and in assay [10] were 54.5%, 73.2% and 76.3%, respectively.
On to `O=C(Nc1cccc(F)c1)Nc1cc2ncncc2cc1OCc1ccccc1Cl`, for which the IC50 in [1] came out at 4 µM; in [3], 3.2 µM; in assay [5] it was 2.4 µM; in assay [7], 9.4 µM. Also, the “Ratio IC50” value in [2], in [6] and in assay [8] was 2.9 each time. In addition, the figures for the inhibition at 10 µM in assay [4], in assay [9] and in [10] were 102%, 97.7% and 102%, respectively.
Turning to `O=C(Nc1cc2ncncc2cc1OCc1ccc(Cl)cc1)Nc1cccc2ccccc12`, the IC50 in [1] was 7.9 µM; in assay [3], 4.5 µM; in assay [5], 7.7 µM; in [7], over 10 µM. For the same compound, the “Ratio IC50” value in assay [2], in [6] and in [8] was over 1.5 in each case. The results for the inhibition at 10 µM in assay [4], in assay [9] and in assay [10] were 98.8%, 97.1% and 98.5%, respectively.
Consider `O=C(Nc1cccc(Cl)c1)Nc1cc2ncncc2cc1OCc1cccc(Cl)c1`, for which the IC50 in assay [1] is 3.3 µM; in [3] it was 3.5 µM; in [5] it was 3.5 µM; in [7] it was over 10 µM. Further, the “Ratio IC50” value in assay [2], in [6] and in assay [8] was over 2.9 each time. Besides, the results for the inhibition at 10 µM in assay [4], in [9] and in assay [10] were 100%, 85% and 98.2%, respectively.
For `CC/C(=C(\c1ccccc1)c1ccc(OCCN(C)C)cc1)c1ccccc1` [TAMOXIFEN], the IC50 in assay [1] was 7.5 µM; in assay [3], 3.5 µM; in [5], 4.7 µM; in assay [7], over 10 µM. Besides, the “Ratio IC50” value in [2], in assay [6] and in [8] was over 2.1 in each case. In addition, the results for the inhibition at 10 µM in assay [4], in assay [9] and in [10] were 95.7%, 98.4% and 101%, respectively.
Turning to `COc1cc([C@@H]2c3cc4c(cc3[C@@H](O[C@@H]3O[C@@H]5CO[C@@H](C)O[C@H]5[C@H](O)[C@H]3O)[C@H]3COC(=O)[C@H]23)OCO4)cc(OC)c1O` [ETOPOSIDE], the IC50 in assay [1] was over 10 µM; in assay [3], 1.1 µM; in assay [5], over 10 µM; in [7], over 10 µM. Besides, the inhibition at 10 µM in assay [4] turned out to be 22.1%; in [9], 53.5%; in [10], 88.2%.
On to `O=C(Nc1ccccc1F)Nc1cc2ncncc2cc1OCc1cccc(F)c1`, for which the IC50 is 8 µM in assay [1], 6.4 µM in assay [3], 8.1 µM in assay [5] and over 10 µM in [7]. For the same compound, the “Ratio IC50” value in assay [2], in [6] and in assay [8] was over 1.3 in each case. In addition, the values for the inhibition at 10 µM in assay [4], in assay [9] and in assay [10] were 61.4%, 63% and 74.5%, respectively.
In the case of `O=C(Nc1cccc(Cl)c1)Nc1cc2ncncc2cc1OCc1ccccc1`, the IC50 amounted to 5.7 µM in assay [1], 4.1 µM in assay [3], 6.4 µM in [5] and 7.4 µM in [7]. The “Ratio IC50” value in assay [2], in assay [6] and in [8] was 1.4 each time. The inhibition at 10 µM worked out at 74.8% in [4], 79.1% in assay [9] and 97.3% in assay [10].
In the case of `O=C(Nc1ccccc1F)Nc1cc2ncncc2cc1OCc1cccc(Cl)c1`, the IC50 in assay [1] is 4.2 µM; in assay [3], 4.4 µM; in assay [5] it was 7.5 µM; in assay [7], 8.7 µM. For the same compound, the “Ratio IC50” value in [2], in assay [6] and in assay [8] was 1.6 throughout. In addition, the figures for the inhibition at 10 µM in assay [4], in assay [9] and in assay [10] were 58.8%, 73% and 82.3%, respectively.
On to `O=C(Nc1ccc(C(F)(F)F)cc1)Nc1cc2ncncc2cc1OCc1cccc(F)c1`, for which the IC50 is 3.8 µM in [1], 3.2 µM in assay [3], 6.3 µM in assay [5] and 8.9 µM in [7]. In addition, the “Ratio IC50” value in [2], in assay [6] and in [8] was 2 throughout. The values for the inhibition at 10 µM in assay [4], in assay [9] and in assay [10] were 95.4%, 76.2% and 99.5%, respectively.
In the case of `CCc1c2c(nc3ccc(OC(=O)N4CCC(N5CCCCC5)CC4)cc13)-c1cc3c(c(=O)n1C2)COC(=O)[C@]3(O)CC`, the IC50 was over 10 µM in [1], 2.4 µM in assay [3], 5 µM in assay [5] and over 10 µM in [7]. The inhibition at 10 µM in [4] stood at 54.1%; in [9], 34.1%; in assay [10] it was 91.8%.
